According to article PMC5266694, “Identification of Key Residues in the NisK Sensor Region for Nisin Biosynthesis Regulation” (Frontiers in Microbiology, 2017):
Where no end group is shown, it is not given here.

T1: His6-NisKex (NisK extracellular region) (Lactococcus lactis CV56, UniProt P42707 36-144)
T1 construct: source: E. coli (pET28a), purified
T1 sequence (looked up): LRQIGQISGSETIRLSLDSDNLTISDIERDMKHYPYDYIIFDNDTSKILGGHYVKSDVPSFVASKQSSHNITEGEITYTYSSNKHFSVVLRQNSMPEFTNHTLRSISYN

B1: nisin (peptide, UniProt P13068 24-57, looked up)
peptide: ITSISLCTPGCKTGALMGCNMKTATCHCSIHVSK
notes: also called signal peptide nisin; nisin A; source: purified from commercial nisin product (Yinxiang, Zhejiang, China)

Experiments:
NisK = experiment: Far-Western blotting, b-nisin binding to NisK; design: species or system Lactococcus lactis; details: membrane proteins of L. lactis MG1363 RKNlacZ, SDS-PAGE, PVDF, denatured and renatured; biotin-labelled nisin, HRP-streptavidin detection
Description: (§1) Lactococcus lactis MG1363 RKNlacZ mutant cells were harvested from 500 ml broth when OD600 reached 0.6–0.7, washed with PBS buffer (pH 7.4) once and resuspended in 20 ml PBS buffer. After lysing by sonication, cells were centrifuged at 6,000 g for 1 h to remove intact cells. The supernatant was ultra-centrifuged at 120,000 g for 2 h to separate soluble (cytoplasmic fraction) and insoluble (cell membrane fraction) proteins.
Nisin was labeled by biotin according to the method shown by ([Koteva et al., 2010]) in Beijing Biosynthesis Biotechnology Co., Ltd.. Briefly, nisin peptide was resolved by NaHCO3 (0.1 M, pH = 9.0) and incubated with biotin. Nisin labeled with biotin was purified by High Performance Liquid Chromatography and was named as b-nisin. The insoluble (cell membrane fraction) proteins were separated from L. lactis MG1363 RKNlacZ mutant cells. Far-Western blotting assays were performed using a modified protocol as described by ([Wu Y. et al., 2007]). Briefly, the insoluble proteins were firstly separated by SDS-PAGE, and transferred to a PVDF membrane as in a standard Western blotting. The proteins in the membrane were then denatured and renatured. […] The horseradish peroxidase (HRP) conjugated streptavidin was used as the secondary antibody, and the lanes indicating b-nisin binding to NisK or NisK mutants were detected by photographic film. […]

NisK mutant 69–73A5 = experiment: Far-Western blotting, b-nisin binding to NisK mutant; design: species or system Lactococcus lactis; details: membrane protein of strain 69–73A5; biotin-labelled nisin, HRP-streptavidin
Description: as §1
(§2) Nisin was labeled by biotin according to the method shown by ([Koteva et al., 2010]) in Beijing Biosynthesis Biotechnology Co., Ltd.. Briefly, nisin peptide was resolved by NaHCO3 (0.1 M, pH = 9.0) and incubated with biotin. Nisin labeled with biotin was purified by High Performance Liquid Chromatography and was named as b-nisin. The insoluble (cell membrane fraction) proteins were separated from L. lactis MG1363 RKNlacZ mutant cells. Far-Western blotting assays were performed using a modified protocol as described by ([Wu Y. et al., 2007]). Briefly, the insoluble proteins were firstly separated by SDS-PAGE, and transferred to a PVDF membrane as in a standard Western blotting. The proteins in the membrane were then denatured and renatured. The membrane is then blocked and probed with b-nisin. The horseradish peroxidase (HRP) conjugated streptavidin was used as the secondary antibody, and the lanes indicating b-nisin binding to NisK or NisK mutants were detected by photographic film.
(§3) In order to clarify whether the important residues in NisK affected the interaction between nisin and NisK, the membrane proteins from L. lactis MG1363 RKNlacZ strain and the mutant strain M66A, D72A, Y113A, F133A, 69–73A5, and 74–76A3 were extracted. Nisin was labeled by biotin, and the modified product was named by b-nisin. The interaction between b-nisin and membrane proteins was studied by far-Western blotting assay.

NisK mutant 74–76A3 = experiment: as above; design: species or system Lactococcus lactis; details: membrane protein of strain 74–76A3; biotin-labelled nisin, HRP-streptavidin
Description: as §1, §2, §3

NisK mutant D72A = experiment: as above; design: species or system Lactococcus lactis; details: membrane protein of strain D72A; biotin-labelled nisin, HRP-streptavidin
Description: as §1, §2, §3

NisK mutant F133A = experiment: as above; design: species or system Lactococcus lactis; details: membrane protein of strain F133A; biotin-labelled nisin, HRP-streptavidin
Description: as §1, §2, §3

NisK mutant M66A = experiment: as above; design: species or system Lactococcus lactis; details: membrane protein of strain M66A; biotin-labelled nisin, HRP-streptavidin
Description: as §1, §2, §3

NisK mutant Y113A = experiment: as above; design: species or system Lactococcus lactis; details: membrane protein of strain Y113A; biotin-labelled nisin, HRP-streptavidin
Description: as §1, §2, §3

[1] = target: T1, His6-NisKex (NisK extracellular region); experiment: SPR; BIACORE3000; His6-NisKex immobilised on a CM5 chip by amide coupling to 1000 RU; nisin in HBS-T as analyte, 260 to 8.125 μM in twofold dilution, 30 μl/min, 25°C; 1:1 (Langmuir) model with local fitted Rmax; details: both partners purified

Molecule	binding to NisK on far-Western blot (NisK)	binding to NisK mutant on far-Western blot (NisK mutant 69–73A5)	binding to NisK mutant on far-Western blot (NisK mutant 74–76A3)	binding to NisK mutant on far-Western blot (NisK mutant D72A)	binding to NisK mutant on far-Western blot (NisK mutant F133A)	binding to NisK mutant on far-Western blot (NisK mutant M66A)	binding to NisK mutant on far-Western blot (NisK mutant Y113A)	koff [1]	kon [1]
b-nisin: Nisin labeled with biotin, purified by High Performance Liquid Chromatography (ITSISLCTPGCKTGALMGCNMKTATCHCSIHVSK; ends and bridges not checked; also: labelled with biotin, site not given here)	labeled a membrane protein of about 51.5 kDa	did not show b-nisin binding bands	did not show b-nisin binding bands	did not show b-nisin binding bands	did not show b-nisin binding bands	did not show b-nisin binding bands	did not show b-nisin binding bands	–	–
B1	–	–	–	–	–	–	–	1 s⁻¹	65.2 M⁻¹ s⁻¹
